Details of series [1]: method as in doi:10.1200/JCO.2020.38.15_suppl.3500, PMID 26200936. Conditions: cited from earlier work.
The test system of a further series is MDA-MB-231 cells. In words: Drug combination assay with ZLC491. Type of series: cell-based, human. Here is the method: (A) Transcription level of DDR genes in MDA-MB-231 cells determined by RT-qPCR upon the treatment with vehicle or ZLC491 at different doses for 12 h, ROR1 was used as a negative control; (B) immunoblotting of DDR proteins in MDA-MB-231 cells after the treatment of ZLC491 at different doses for 48 h; (C) cell antiproliferative activity of ZLC491 in multiple TNBC cells as well as several noncancerous cells. Cells were treated with the compound for 5 days; (D,E) antiproliferative potency of cisplatin or olaparib alone or combined with ZLC491 at different doses in MDA-MB-231 cells for 5 days. Data are plotted using the percentage of absorbance relative to DMSO controls. (F) IC50 values and combination index (CI) in drug combination assay. In this model, CI scores estimate the interaction between the two drugs. If CI < 1, the drugs have a synergistic effect and if CI > 1, the drugs have an antagonistic effect. CI = 1 means the drugs have an additive effect. ^aThe drug combination in the table refers to the starting concentration of the two combined drugs, that would both go through serial dilution when treating cells.
Tested cells were plated in 96-well or 384-well plates and incubated at 37 °C with or without 5% CO2. […] Cell proliferation was measured 5 days after compound treatment using Cell Counting Kit-8 (Selleck) according to the manufacturer’s instructions. […]

The next series has as its system CDK12/13. Put plainly: Immunoblotting of CDK12/13 in MDA-MB-231 cells (time course, negative control, series comparison). The note with it: 1 μM, 10 h. Type of series: cell-based, human. On the procedure:
(§1) To further characterize the compound, we determined the half-degradation concentration (DC50) values of ZLC491 in MDA-MB-231 cells. […] We also treated MDA-MB-231 cells with 1 μM ZLC491 at various time points.
(§2) (A) Immunoblotting of CDK12 and CDK13 in MDA-MB-231 cells treated with increasing concentrations of ZLC491 for 15 h (left). Percent remaining CDK12 and CDK13 proteins were plotted for DC50 determination (right). Protein levels were quantified using ImageJ and normalized to corresponding α-tubulin, then plotted using Graphpad Prism 8.0. The data were representative of three independent experiments; (B) immunoblotting of CDK12 and CDK13 proteins in MDA-MB-231 cells treated with ZLC491 for various time points; immunoblotting of CDK12 and CDK13 in HCC38 (C) and MDA-MB-436 (D) cells treated with increasing concentrations of ZLC491 for 15 h. α-Tubulin was used as a loading control. TEXT PRINTED IN THE PICTURE: (A) ZLC491: MDA-MB-231: CDK12 DC50 = 0.032μM; MDA-MB-231: CDK13 DC50 = 0.028μM DOUBTS OF THE COPYIST ABOUT THIS PICTURE: ZLC491, CDK12 DC50: 0.032 read from small print, the digits 3 and 2 are uncertain / ZLC491, CDK13 DC50: 0.028 read from small print, the last digit may be 8, 6 or 3
Figure 4 ZLC491 induced CDK12/13 degradation in a CRBN- and proteasome-dependent fashion. […]
A general note: A western blot detects proteins with antibodies after separation by electrophoresis.

Series [2] has as its system TNBC cells and noncancerous cells. Put plainly: Cell proliferation assay of the negative control in multiple TNBC and noncancerous cells. Type of series: cell-based, human. Conditions: multiple TNBC and noncancerous cell lines, 5 days. Here is the method:
The antiproliferative effects of ZLC491 against TNBC cells were also evaluated. […] We thus investigated the synergistic effects of ZLC491 with DNA cross-linker cisplatin.
Tested cells were plated in 96-well or 384-well plates and incubated at 37 °C with or without 5% CO2. After overnight incubation, serial dilutions of compounds were added to the plate. Cell proliferation was measured 5 days after compound treatment using Cell Counting Kit-8 (Selleck) according to the manufacturer’s instructions.
Figure S3. Immunoblotting of CCNK in MDA-MB-231 cells treated with increasing concentrations of ZLC491 for 15 h.
Figure S4. Cell antiproliferative activity of ZLC491N in multiple TNBC cells as well as noncancerous cells. Cells were treated with the compound for 5 days. […]

The next series deals with T1, CDK13 (Homo sapiens, UniProt Q14004).
T1 construct: Immunoblotting of CDK12 and CDK13 in MDA-MB-231 cells treated with increasing concentrations of ZLC491 for 15 h; endogenous in cells; host or cells: MDA-MB-231
Put plainly: CDK13 degradation in MDA-MB-231 cells by immunoblotting.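 Note: percent of CDK13 protein degraded relative to DMSO control.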 Type of series: cell-based. The note with it: MDA-MB-231 cells, 0.3 μM, 15 h, immunoblotting, normalized against α-tubulin. On the procedure: (§3) The degradation efficiency of the new molecules was assessed by immunoblotting after treatment with the compounds at 0.3 μM in MD-MBA-231 cells for 15 h.
as §1, §2
(§4) Generally, the tested cells were washed by ice-cold PBS buffer (Gibco) and lysed with an SDS lysis buffer (62.5 mM Tris, 2% w/v SDS, 10 glycerol, 50 mM DTT, 0.01% w/v bromophenol blue) on ice, after which the protein lysate samples were collected to 1.5 mL microcentrifuge tubes and treated with ultrasonic for 10 s, following with a 100 °C incubation for 10 min and a 4 °C centrifugation of 12000 rpm for 10 min. An equal amount of protein was loaded to 4–8% Bis-Tris gels and underwent an SDS-PAGE electrophoresis at 55V for 30 min and 95V for 90 min. Proteins on gels were then transferred to a polyvinylidene difluoride (PVDF) membrane (Bio-Rad) with a wet electro transfer system (Bio-Rad). The PVDF membrane was cut into bands and incubated in a blocking reagent (5% defatted milk powder dissolved in TBST) at room temperature for 1–2 h. Incubate membrane and primary antibody (at the appropriate dilution and diluent as recommended in the product webpage) at 4 °C for 12–14 h, followed with three times washes by TBST. The washed membranes were incubated in a secondary antibody solution (HRP-linked antirabbit IgG or antimouse IgG (CST), 1:2000 diluted into TBST) at room temperature for 2 h. Membranes were photographed in Amersham Imager 800 system using StarSignal plus regent (GenStar) or Omni-ECL reagent (EpiZyme). Compounds MG132, MLN4924, Bafilomycin A1 and pomalidomide were purchased from MedChemExpress (MCE) LLC.

In a further series the target is CDK12 (Homo sapiens, UniProt Q9NYV4). In words: CDK12 degradation in MDA-MB-231 cells by immunoblotting. The series is classed as cell-based. Details: Immunoblotting of CDK12 and CDK13 in MDA-MB-231 cells treated with increasing concentrations of ZLC491 for 15 h; endogenous in cells; host or cells: MDA-MB-231. Conditions: MDA-MB-231 cells, 0.3 μM, 15 h, immunoblotting, normalized against α-tubulin. Here is the method:
as §3, §1, §2, §4

On the set-up of series [3]: method as in PMID 35938508. Conditions: rats; cited from earlier work.

“Also recorded” adds a separate entry of the source. Like-named read-outs stand apart in the source and are kept apart here.

Chain of CDK12 (Q9NYV4 whole entry): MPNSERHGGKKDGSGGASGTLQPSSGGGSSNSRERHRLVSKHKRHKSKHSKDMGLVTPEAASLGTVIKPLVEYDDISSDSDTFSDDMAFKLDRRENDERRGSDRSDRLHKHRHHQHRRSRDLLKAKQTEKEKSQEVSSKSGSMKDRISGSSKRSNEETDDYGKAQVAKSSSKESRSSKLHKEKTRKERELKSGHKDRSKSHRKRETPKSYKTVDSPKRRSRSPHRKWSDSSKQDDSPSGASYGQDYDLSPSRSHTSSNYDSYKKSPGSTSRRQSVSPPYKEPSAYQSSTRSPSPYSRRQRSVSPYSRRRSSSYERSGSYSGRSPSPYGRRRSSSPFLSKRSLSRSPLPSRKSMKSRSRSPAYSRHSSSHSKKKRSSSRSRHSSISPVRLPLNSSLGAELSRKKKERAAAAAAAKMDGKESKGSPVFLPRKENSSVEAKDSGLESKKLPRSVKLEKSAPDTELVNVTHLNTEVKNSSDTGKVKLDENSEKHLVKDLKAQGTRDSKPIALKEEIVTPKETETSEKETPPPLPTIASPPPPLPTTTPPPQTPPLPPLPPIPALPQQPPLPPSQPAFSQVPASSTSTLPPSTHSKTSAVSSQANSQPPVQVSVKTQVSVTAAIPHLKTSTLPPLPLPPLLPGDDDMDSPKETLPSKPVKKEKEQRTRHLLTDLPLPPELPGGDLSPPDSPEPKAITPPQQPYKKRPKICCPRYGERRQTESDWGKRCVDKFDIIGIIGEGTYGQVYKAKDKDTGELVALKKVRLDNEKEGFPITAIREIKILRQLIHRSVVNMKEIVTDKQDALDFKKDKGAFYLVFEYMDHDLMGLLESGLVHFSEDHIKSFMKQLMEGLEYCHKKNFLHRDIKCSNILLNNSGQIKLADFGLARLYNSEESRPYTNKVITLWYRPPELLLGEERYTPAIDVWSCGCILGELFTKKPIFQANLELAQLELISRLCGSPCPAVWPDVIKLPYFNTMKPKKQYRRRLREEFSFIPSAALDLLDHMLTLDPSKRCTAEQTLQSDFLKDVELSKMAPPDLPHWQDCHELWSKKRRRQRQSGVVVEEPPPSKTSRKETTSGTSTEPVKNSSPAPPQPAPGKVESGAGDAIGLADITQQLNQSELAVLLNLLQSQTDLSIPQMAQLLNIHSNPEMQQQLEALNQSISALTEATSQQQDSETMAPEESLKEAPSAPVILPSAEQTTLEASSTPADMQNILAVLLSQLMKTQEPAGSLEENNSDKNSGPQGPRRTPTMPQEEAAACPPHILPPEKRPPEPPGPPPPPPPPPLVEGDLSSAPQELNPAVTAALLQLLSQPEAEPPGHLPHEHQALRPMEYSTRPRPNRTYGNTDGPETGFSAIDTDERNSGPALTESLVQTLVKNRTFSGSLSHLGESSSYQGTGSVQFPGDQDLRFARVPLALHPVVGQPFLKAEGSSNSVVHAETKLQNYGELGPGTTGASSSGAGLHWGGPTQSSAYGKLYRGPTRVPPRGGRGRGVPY
Chain of CDK12 (O75909 whole entry partner): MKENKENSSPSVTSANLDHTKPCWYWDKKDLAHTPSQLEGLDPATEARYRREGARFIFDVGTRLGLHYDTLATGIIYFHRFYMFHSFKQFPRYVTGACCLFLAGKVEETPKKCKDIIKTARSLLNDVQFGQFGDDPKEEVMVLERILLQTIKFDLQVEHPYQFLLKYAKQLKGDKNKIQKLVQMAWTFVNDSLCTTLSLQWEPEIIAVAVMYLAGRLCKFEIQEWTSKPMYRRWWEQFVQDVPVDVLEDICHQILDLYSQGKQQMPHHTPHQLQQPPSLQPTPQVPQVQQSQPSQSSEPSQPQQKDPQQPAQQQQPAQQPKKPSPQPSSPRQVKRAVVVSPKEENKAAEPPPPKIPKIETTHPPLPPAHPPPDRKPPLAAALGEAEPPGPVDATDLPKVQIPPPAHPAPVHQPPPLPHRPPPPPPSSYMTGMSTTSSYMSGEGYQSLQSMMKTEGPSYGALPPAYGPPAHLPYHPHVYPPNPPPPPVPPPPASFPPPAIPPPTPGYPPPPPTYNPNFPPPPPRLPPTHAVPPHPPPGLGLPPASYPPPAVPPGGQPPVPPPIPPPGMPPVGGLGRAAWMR
T1 sequence (Q14004 whole entry): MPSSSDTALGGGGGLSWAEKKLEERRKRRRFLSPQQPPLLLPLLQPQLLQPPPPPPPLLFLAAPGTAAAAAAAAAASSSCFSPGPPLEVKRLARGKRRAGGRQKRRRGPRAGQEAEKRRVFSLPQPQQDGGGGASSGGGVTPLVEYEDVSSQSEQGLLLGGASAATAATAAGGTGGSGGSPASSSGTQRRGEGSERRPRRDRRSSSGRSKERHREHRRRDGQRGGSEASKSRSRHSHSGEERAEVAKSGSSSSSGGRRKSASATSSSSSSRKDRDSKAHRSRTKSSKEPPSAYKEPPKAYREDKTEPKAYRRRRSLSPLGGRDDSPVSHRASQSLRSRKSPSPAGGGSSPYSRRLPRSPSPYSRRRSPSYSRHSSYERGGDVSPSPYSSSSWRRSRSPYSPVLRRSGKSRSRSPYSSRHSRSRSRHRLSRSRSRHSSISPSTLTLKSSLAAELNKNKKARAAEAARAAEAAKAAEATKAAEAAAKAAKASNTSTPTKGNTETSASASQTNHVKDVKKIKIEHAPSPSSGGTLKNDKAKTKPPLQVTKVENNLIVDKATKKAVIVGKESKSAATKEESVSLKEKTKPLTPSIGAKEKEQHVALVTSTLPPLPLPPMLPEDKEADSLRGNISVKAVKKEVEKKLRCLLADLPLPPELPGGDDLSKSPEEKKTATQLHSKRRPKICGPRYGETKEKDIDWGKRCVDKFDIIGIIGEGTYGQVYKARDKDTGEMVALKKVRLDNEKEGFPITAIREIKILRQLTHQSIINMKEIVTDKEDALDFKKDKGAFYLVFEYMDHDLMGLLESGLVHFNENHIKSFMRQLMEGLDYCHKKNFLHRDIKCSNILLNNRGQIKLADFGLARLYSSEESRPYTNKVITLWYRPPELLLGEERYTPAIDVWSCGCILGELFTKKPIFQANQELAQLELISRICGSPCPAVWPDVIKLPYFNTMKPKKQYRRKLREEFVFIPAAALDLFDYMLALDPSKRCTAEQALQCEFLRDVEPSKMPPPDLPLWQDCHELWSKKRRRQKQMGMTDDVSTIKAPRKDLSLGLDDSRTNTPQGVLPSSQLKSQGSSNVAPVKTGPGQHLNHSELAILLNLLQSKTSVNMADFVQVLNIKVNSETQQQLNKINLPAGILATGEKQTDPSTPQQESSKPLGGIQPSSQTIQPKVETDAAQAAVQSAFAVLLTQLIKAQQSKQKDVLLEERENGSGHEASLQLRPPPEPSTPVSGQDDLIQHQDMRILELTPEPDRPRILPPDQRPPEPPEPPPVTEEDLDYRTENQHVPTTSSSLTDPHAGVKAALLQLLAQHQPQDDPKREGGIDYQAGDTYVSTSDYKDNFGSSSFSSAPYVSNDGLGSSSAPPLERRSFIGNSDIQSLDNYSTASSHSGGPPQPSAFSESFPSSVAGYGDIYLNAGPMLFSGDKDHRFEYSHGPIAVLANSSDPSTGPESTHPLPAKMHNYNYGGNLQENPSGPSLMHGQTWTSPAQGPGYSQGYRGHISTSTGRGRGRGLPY
T1 sequence (O75909 whole entry partner): as the sequence (O75909 whole entry partner) above

In the case of `N#Cc1ccc(O[C@H]2CC[C@H](NC(=O)c3ccc(N4CCC(CN5CCN(c6cc7c(cc6F)C(=O)N(C6CCC(=O)NC6=O)C7=O)CC5)CC4)nn3)CC2)cc1Cl` (stereo partly drawn) [ARV-110], the oral bioavailability entry in series [1] is recorded as “good oral bioavailability”.

Take `N.N.[Cl][Pt][Cl]` [Cisplatin, cisplatin]: the “interaction with ZLC491 in dose–response assays” value in the series with MDA-MB-231 cells (MDA-MB-231 cells, 5 days) is on record as “potent synergy”.

What is called IC50 is the concentration at which inhibition is half-maximal. As to `O=C(c1cc(Cc2n[nH]c(=O)c3ccccc23)ccc1F)N1CCN(C(=O)C2CC2)CC1` [Olaparib, olaparib], in the series on MDA-MB-231 cells (Homo sapiens, 120 h, drug A alone, starting concentration 25 μM, MDA-MB-231, 5 days, read-out: IC50 (μM), Drug A: ZLC491 25μM: 0μM), the IC50 stood at 7.24 µM.

As to `CN1C(=O)CCC(N2C(=O)c3cc(F)c(N4CCC(N5CCN(c6ccc(N(C(=O)NCc7ccccc7)[C@H]7CC[C@H](Nc8ccc(C#N)cn8)CC7)cc6)CC5)CC4)cc3C2=O)C1=O` (stereo partly drawn) [ZLC491N, 3-Benzyl-1-((1r,4r)-4-((5-cyanopyridin-2-yl)amino)cyclohexyl)-1-(4-(4-(1-(6-fluoro-2-(1-methyl-2,6-dioxopiperidin-3-yl)-1,3-dioxoisoindolin-5-yl)piperidin-4-yl)piperazin-1-yl)phenyl)urea], the “degradative effect on CDK12/13” value in the series on CDK12/13 is on record as “no degradative effect”. For the same compound, the antiproliferative effects entry in series [2] was “no antiproliferative effects”.

As for `N#Cc1ccc(N[C@H]2CC[C@H](N(C(=O)NCc3ccccc3)c3ccc(N4CCN(C(=O)CNc5ccc6c(c5)C(=O)N(C5CCC(=O)NC5=O)C6=O)CC4)cc3)CC2)nc1` (stereo partly drawn) [compound 3], the “Protein Degradation (%DMSO control, 0.3 μM) CDK13” value on CDK13 is 84%. For the same compound, at CDK12, the “Protein Degradation (%DMSO control, 0.3 μM) CDK12” value is 75%. In series [3], the clearance result is on record as “high” and the oral bioavailability entry is “not orally bioavailable; also recorded: nondetectable”.

The record behind these values is publication PMC11513923, “Discovery of ZLC491 as a Potent, Selective, and Orally Bioavailable CDK12/13 PROTAC Degrader” (Journal of Medicinal Chemistry, 2024).
